# Laboratory results taken from US10022354B2, “Pyrrolidine amide compounds as histone demethylase inhibitors” (GENENTECH, INC., priority 2014, dated 2018).
# Biological target: full length KDM5A enzyme (Homo sapiens (Human), UniProt P29375)
# Assay: KDM5 Enzyme Assay (KDM5A HTRF)
# Type: biochemical
# Conditions: 2 nM full length KDM5A, 100 nM H3K4Me3 peptide, 1 uM 2-OG, 30 min room temperature
# Description: Full length KDM5A enzyme was expressed and purified inhouse. Biotin-H3K4me3 peptide was purchased from New England Biolabs. HTRF reagents (containing Eu-labeled H3K4me1-2 antibody, and streptavidin-XL665) were purchased from Cis-Bio International. Plates were read on an Envision multi-label plate reader (Perkin Elmer).
# The HTRF assay mixture contained 2 nM full length KDM5A enzyme, 100 nM H3K4Me3 peptide substrate, 1 uM 2-OG, 100 uM Fe^2+, 500 uM ascorbate. 50 mM HEPES pH 7.0 buffer, 0.01% Triton-X 100, 2 mM DTT, 0.25% DMSO at a final volume of 10 uL.
# The plates were incubated at room temperature for 60 minutes and then read in the Envision plate reader.
# Chain of full length KDM5A enzyme (P29375 whole entry): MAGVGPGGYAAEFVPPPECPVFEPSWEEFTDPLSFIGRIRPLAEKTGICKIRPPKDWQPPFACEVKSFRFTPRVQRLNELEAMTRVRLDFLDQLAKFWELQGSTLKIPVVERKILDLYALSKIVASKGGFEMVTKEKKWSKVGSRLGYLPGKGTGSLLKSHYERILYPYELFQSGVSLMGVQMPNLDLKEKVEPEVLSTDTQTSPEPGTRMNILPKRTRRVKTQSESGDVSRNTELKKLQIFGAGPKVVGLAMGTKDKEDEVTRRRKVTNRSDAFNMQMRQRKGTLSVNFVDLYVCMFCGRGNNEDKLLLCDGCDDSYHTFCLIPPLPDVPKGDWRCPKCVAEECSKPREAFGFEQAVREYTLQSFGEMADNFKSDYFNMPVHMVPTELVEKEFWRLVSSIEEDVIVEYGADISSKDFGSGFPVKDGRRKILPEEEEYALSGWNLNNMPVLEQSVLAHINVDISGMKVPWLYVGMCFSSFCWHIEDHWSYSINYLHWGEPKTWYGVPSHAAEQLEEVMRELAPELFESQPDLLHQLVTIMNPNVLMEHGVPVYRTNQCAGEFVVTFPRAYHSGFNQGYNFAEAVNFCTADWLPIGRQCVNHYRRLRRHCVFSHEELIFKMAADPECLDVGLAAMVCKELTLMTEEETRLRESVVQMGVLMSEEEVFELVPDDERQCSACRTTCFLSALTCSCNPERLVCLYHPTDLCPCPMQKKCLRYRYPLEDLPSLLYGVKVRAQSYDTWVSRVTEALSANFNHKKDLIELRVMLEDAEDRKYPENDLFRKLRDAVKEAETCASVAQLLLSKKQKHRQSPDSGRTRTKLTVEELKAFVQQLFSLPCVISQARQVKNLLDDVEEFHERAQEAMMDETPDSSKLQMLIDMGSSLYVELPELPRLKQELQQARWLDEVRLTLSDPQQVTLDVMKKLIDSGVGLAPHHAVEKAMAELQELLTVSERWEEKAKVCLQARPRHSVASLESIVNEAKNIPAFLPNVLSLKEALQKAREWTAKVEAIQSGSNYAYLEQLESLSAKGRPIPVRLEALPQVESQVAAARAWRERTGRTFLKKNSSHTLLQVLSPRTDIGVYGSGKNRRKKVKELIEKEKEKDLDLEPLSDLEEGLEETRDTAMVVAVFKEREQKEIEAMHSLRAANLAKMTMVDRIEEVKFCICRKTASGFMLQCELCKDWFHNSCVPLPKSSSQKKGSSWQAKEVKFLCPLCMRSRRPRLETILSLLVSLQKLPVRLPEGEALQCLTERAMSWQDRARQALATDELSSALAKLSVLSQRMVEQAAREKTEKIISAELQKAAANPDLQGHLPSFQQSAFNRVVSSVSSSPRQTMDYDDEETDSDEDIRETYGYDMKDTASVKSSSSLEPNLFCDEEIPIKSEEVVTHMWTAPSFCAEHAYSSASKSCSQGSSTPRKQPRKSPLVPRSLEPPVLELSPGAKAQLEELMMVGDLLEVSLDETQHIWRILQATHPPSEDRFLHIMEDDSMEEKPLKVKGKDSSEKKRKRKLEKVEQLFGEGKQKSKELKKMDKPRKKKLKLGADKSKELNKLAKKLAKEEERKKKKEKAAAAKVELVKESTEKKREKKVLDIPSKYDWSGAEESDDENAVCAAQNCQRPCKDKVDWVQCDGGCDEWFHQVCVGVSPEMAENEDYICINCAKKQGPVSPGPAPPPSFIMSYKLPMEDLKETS
row,Compound,IC50 [pM]
1,COc1ccc(C2CCN(C(=O)c3cc(C(C)C)n[nH]3)C2)nc1 (stereo not shown) [Example 103],1600
2,CC(C)c1cc(C(=O)N2CCC(c3ccc(N)cn3)C2)[nH]n1 (stereo not shown) [Example 104],3300
3,Cc1ccc(C2CCN(C(=O)c3cc(C(C)C)n[nH]3)C2)nc1 (stereo not shown) [Example 105],2300
4,CC(C)c1cc(C(=O)N2CCC(c3ccc(-c4ccccc4)cn3)C2)[nH]n1 (stereo not shown) [Example 106],1400
5,Cc1cc(-c2cnn(C)c2)cc(C2=CCN(C(=O)c3cc(C(C)C)n[nH]3)C2)n1 [Example 108],18000
6,CC(C)c1cc(C(=O)N2CCC(NC(=O)c3cccnc3)C2)[nH]n1 (stereo not shown) [Example 109],760
7,CC(C)c1cc(C(=O)N2CCC(NC(=O)c3cccc(Cl)c3)C2)[nH]n1 (stereo not shown) [Example 110],250
8,CC(C)c1cc(C(=O)N2CCC(NC(=O)c3ccc(Cl)cc3)C2)[nH]n1 (stereo not shown) [Example 111],750
9,CC(C)c1cc(C(=O)N2CCC(NC(=O)c3ccn(C)n3)C2)[nH]n1 (stereo not shown) [Example 112],66
10,CC(C)c1cc(C(=O)N2CCC(NC(=O)c3cnn(C)c3)C2)[nH]n1 (stereo not shown) [Example 113],900
11,CC(C)c1cc(C(=O)N2CCC(NC(=O)Nc3ccccc3)C2)[nH]n1 (stereo not shown) [Example 114],280
12,COC(=O)NC1CCN(C(=O)c2cc(C(C)C)n[nH]2)C1 (stereo not shown) [Example 115],590
13,CC(C)c1cc(C(=O)N2CCC(NC(=O)Oc3ccccc3)C2)[nH]n1 (stereo not shown) [Example 116],2100
14,CC(C)c1cc(C(=O)N2CCC(NC(=O)C3CNC3)C2)[nH]n1 (stereo not shown) [Example 118],5200
15,CC(C)c1cc(C(=O)N2CCC(NC(=O)C3CCNC3)C2)[nH]n1 (stereo not shown) [Example 119],11000
16,CC(C)c1cc(C(=O)N2CCC(NC(=O)c3ccc4cc[nH]c4c3)C2)[nH]n1 (stereo not shown) [Example 120],53
17,CC(C)c1cc(C(=O)N2CCC(NC(=O)c3ccc4[nH]ccc4c3)C2)[nH]n1 (stereo not shown) [Example 121],66
18,CC(C)c1cc(C(=O)N2CCC(NC(=O)c3cc4ccccc4[nH]3)C2)[nH]n1 (stereo not shown) [Example 122],490
19,CCC(=O)NC1CCN(C(=O)c2cc(C(C)C)n[nH]2)C1 (stereo not shown) [Example 123],260
20,CCCC(=O)NC1CCN(C(=O)c2cc(C(C)C)n[nH]2)C1 (stereo not shown) [Example 124],150
21,CC(C)CC(=O)NC1CCN(C(=O)c2cc(C(C)C)n[nH]2)C1 (stereo not shown) [Example 125],320

row,Compound,IC50 [pM]
1,CC(C)c1cc(C(=O)N2CCC(NC(=O)/C=C/c3ccccc3)C2)[nH]n1 (stereo not shown) [Example 126],890
2,COCC(=O)NC1CCN(C(=O)c2cc(C(C)C)n[nH]2)C1 (stereo not shown) [Example 127],420
3,CCOc1ccccc1C(=O)NC1CCN(C(=O)c2cc(C(C)C)n[nH]2)C1 (stereo not shown) [Example 129],47
4,CC(C)c1cc(C(=O)N2CCC(NC(=O)C3CC3C)C2)[nH]n1 (stereo not shown) [Example 130],140
5,CC1CC(C(=O)NC2CCN(C(=O)c3cc(C(C)C)n[nH]3)C2)C1 (stereo not shown) [Example 131],840
6,CC(C)c1cc(C(=O)N2CCC(NC(=O)C3CCOC3)C2)[nH]n1 (stereo not shown) [Example 132],120
7,CC(C)c1cc(C(=O)N2CCC(NC(=O)C3CC(=O)C3)C2)[nH]n1 (stereo not shown) [Example 133],300
8,CCC(C)(C)C(=O)NC1CCN(C(=O)c2cc(C(C)C)n[nH]2)C1 (stereo not shown) [Example 137],270
9,CC(C)c1cc(C(=O)N2CCC(NC(=O)C3(c4ccccc4)CC3)C2)[nH]n1 (stereo not shown) [Example 138],260
10,COc1cccc(OC)c1C(=O)NC1CCN(C(=O)c2cc(C(C)C)n[nH]2)C1 (stereo not shown) [Example 139],3000
11,CC(C)c1cc(C(=O)N2CCC(NC(=O)C3(c4ccccn4)CC3)C2)n[nH]1 (stereo not shown) [Example 140],210
12,CC(C)c1cc(C(=O)N2CCC(NC(=O)c3ccccc3OC(F)(F)F)C2)[nH]n1 (stereo not shown) [Example 142],1500
13,CC(C)c1cc(C(=O)N2CCC(c3cc(-c4cnn(C)c4)cc(N)n3)C2)[nH]n1 (stereo not shown) [Example 144],130
14,CC(C)c1cc(C(=O)N2CCC(NC(=O)C3CCCCC3)C2)[nH]n1 (stereo not shown) [Example 145],1900
15,CC(C)c1cc(C(=O)N2CCC(NC(=O)c3ccccn3)C2)[nH]n1 (stereo not shown) [Example 146],180
16,CC(C)c1cc(C(=O)N2CCC(N(C)C(=O)c3ccccc3)C2)[nH]n1 (stereo not shown) [Example 147],8900
17,CCN(C(=O)c1ccccc1)C1CCN(C(=O)c2cc(C(C)C)n[nH]2)C1 (stereo not shown) [Example 148],12000
18,CC(C)c1cc(C(=O)N2CCC(NC(=O)c3ccncc3)C2)[nH]n1 (stereo not shown) [Example 149],2500
19,CC(C)c1cc(C(=O)N2CCC(NC(=O)c3ccccc3Cl)C2)[nH]n1 (stereo not shown) [Example 150],98
20,CC(C)c1cc(C(=O)N2CCC(NC(=O)C3CCC3)C2)[nH]n1 (stereo not shown) [Example 152],83
21,CC(C)c1cc(C(=O)N2CCC(NC(=O)C3CCOCC3)C2)[nH]n1 (stereo not shown) [Example 154],400

row,Compound,IC50 [pM]
1,CC(C)c1cc(C(=O)N2CCC(NC(=O)c3ccccc3F)C2)[nH]n1 (stereo not shown) [Example 155],75
2,CC(C)c1cc(C(=O)N2CCC(NC(=O)c3cccc(F)c3)C2)[nH]n1 (stereo not shown) [Example 156],74
3,CC(C)c1cc(C(=O)N2CCC(NC(=O)c3ccc(F)cc3)C2)[nH]n1 (stereo not shown) [Example 157],200
4,COc1ccccc1C(=O)NC1CCN(C(=O)c2cc(C(C)C)n[nH]2)C1 (stereo not shown) [Example 158],73
5,COc1cccc(C(=O)NC2CCN(C(=O)c3cc(C(C)C)n[nH]3)C2)c1 (stereo not shown) [Example 159],120
6,COc1ccc(C(=O)NC2CCN(C(=O)c3cc(C(C)C)n[nH]3)C2)cc1 (stereo not shown) [Example 160],270
7,CC(C)c1cc(C(=O)N2CCC(NC(=O)C3CCCO3)C2)[nH]n1 (stereo not shown) [Example 161],380
8,CC(C)c1cc(C(=O)N2CCC(NC(=O)c3ccn(C(C)C)n3)C2)[nH]n1 (stereo not shown) [Example 162],5100
9,CC(C)c1cc(C(=O)N2CCC(NC(=O)C3CC3c3ccccc3)C2)[nH]n1 (stereo not shown) [Example 163],580
10,CC(C)c1cc(C(=O)N2CCC(NC(=O)c3ccccc3Oc3ccccc3)C2)[nH]n1 (stereo not shown) [Example 164],700
11,CCn1ccc(C(=O)NC2CCN(C(=O)c3cc(C(C)C)n[nH]3)C2)n1 (stereo not shown) [Example 165],110
12,CC(C)c1cc(C(=O)N2CCC(NC(=O)C3CCCOC3)C2)[nH]n1 (stereo not shown) [Example 166],520
13,CC(C)c1cc(C(=O)N2CCC(NC(=O)C3CC(N)C3)C2)[nH]n1 (stereo not shown) [Example 167],17000
14,CC(C)c1cc(C(=O)N2CCC(NC(=O)C(C)(C)C)C2)[nH]n1 (stereo not shown) [Example 168],200
15,CC(C)c1cc(C(=O)N2CCC(NC(=O)COc3ccccc3)C2)[nH]n1 (stereo not shown) [Example 169],3100
16,CC(O)C(=O)NC1CCN(C(=O)c2cc(C(C)C)n[nH]2)C1 (stereo not shown) [Example 170],1600
17,CC(C)c1cc(C(=O)N2CCC(NC(=O)C3(C(F)(F)F)CC3)C2)[nH]n1 (stereo not shown) [Example 172],920
18,CC(C)c1cc(C(=O)N2CCC(NC(=O)C(C)(C)C(F)(F)F)C2)[nH]n1 (stereo not shown) [Example 173],1600
19,COC1(C(=O)NC2CCN(C(=O)c3cc(C(C)C)n[nH]3)C2)CC1 (stereo not shown) [Example 174],210
20,CC(C)c1cc(C(=O)N2CCC(NC(=O)CC3CC3)C2)[nH]n1 (stereo not shown) [Example 175],400
21,COCCC(=O)NC1CCN(C(=O)c2cc(C(C)C)n[nH]2)C1 (stereo not shown) [Example 176],1100

row,Compound,IC50 [pM]
1,CC(C)c1cc(C(=O)N2CCC(NC(=O)c3ccc4[nH]ccc4n3)C2)[nH]n1 (stereo not shown) [Example 177],78
2,CC(C)c1cc(C(=O)N2CCC(NC(=O)c3ccc4c(ccn4C)c3)C2)[nH]n1 (stereo not shown) [Example 178],80
3,CC(C)c1cc(C(=O)N2CCC(NC(=O)C3COC3)C2)[nH]n1 (stereo not shown) [Example 179],240
4,CC(C)c1cc(C(=O)N2CCC(NC(=O)C3(C)COC3)C2)[nH]n1 (stereo not shown) [Example 181],300
5,CC(C)c1cc(C(=O)N2CCC(NC(=O)C3(c4cccnc4)CC3)C2)n[nH]1 (stereo not shown) [Example 184],1200
6,CC(C)c1cc(C(=O)N2CCC(NC(=O)c3ccccc3OCCO)C2)[nH]n1 (stereo not shown) [Example 185],110
7,CC(C)c1cc(C(=O)N2CCC(C(=O)Nc3ccccc3)C2)[nH]n1 (stereo not shown) [Example 187],6500
8,CCNC(=O)C1CCN(C(=O)c2cc(C(C)C)n[nH]2)C1 (stereo not shown) [Example 188],22000
9,CCC(C)c1cc(C(=O)N2CC[C@@H](NC(=O)[C@H]3C[C@H]3F)C2)[nH]n1 (stereo partly shown) [Example 189],38
10,CCC(C)c1cc(C(=O)N2CC[C@@H](NC(=O)[C@@H]3C[C@@H]3F)C2)[nH]n1 (stereo partly shown) [Example 190],37
11,CC(C)c1cc(C(=O)N2CCC(NC(=O)C3(c4ccncc4)CC3)C2)[nH]n1 (stereo not shown) [Example 191],2000
12,COCC1(C(=O)NC2CCN(C(=O)c3cc(C(C)C)n[nH]3)C2)CC1 (stereo not shown) [Example 192],580
13,CC(C)c1cc(C(=O)N2CCC(NC(=O)C3(C#N)CC3)C2)[nH]n1 (stereo not shown) [Example 193],410
14,CC(C)c1cc(C(=O)N2CCC(NC(=O)CC(F)(F)F)C2)[nH]n1 (stereo not shown) [Example 194],460
15,CC(C)c1cc(C(=O)N2CCC(NC(=O)C3(Oc4ccccc4)CC3)C2)[nH]n1 (stereo not shown) [Example 195],3500
16,CC(C)c1cc(C(=O)N2CCC(NC(=O)c3ccn(-c4cnn(C)c4)n3)C2)[nH]n1 (stereo not shown) [Example 196],110
17,CC(C)c1cc(C(=O)N2CCC(NC(=O)c3ncccn3)C2)n[nH]1 (stereo not shown) [Example 197],310
18,COc1cccc(F)c1C(=O)NC1CCN(C(=O)c2cc(C(C)C)[nH]n2)C1 (stereo not shown) [Example 198],1200
19,CC(C)c1cc(C(=O)N2CCC(NC(=O)c3cnccn3)C2)n[nH]1 (stereo not shown) [Example 199],1100
